Experiment [1] has as its system Rattus norvegicus. Briefly: In vivo receptor occupancy at GABAA receptor in sc dosed rat brain. It is filed as functional.
Experiment [2] deals with Homo sapiens. Briefly: In vivo receptor occupancy GABAA receptor in human assessed as occipital cortex concentration causing reduction in [11C]flumazenil receptor labeling at 20 mg by PET method relative to control. It is filed as functional.
Experiment [3] deals with Homo sapiens. Briefly: In vivo receptor occupancy GABAA receptor in human assessed as cerebellum concentration causing reduction in [11C]flumazenil receptor labeling at 20 mg by PET method relative to control. In kind it is functional.
Experiment [4] addresses T1, Gamma-aminobutyric acid receptor subunit alpha-2 (Homo sapiens, UniProt P47869).
T1 sequence (P47869 whole entry): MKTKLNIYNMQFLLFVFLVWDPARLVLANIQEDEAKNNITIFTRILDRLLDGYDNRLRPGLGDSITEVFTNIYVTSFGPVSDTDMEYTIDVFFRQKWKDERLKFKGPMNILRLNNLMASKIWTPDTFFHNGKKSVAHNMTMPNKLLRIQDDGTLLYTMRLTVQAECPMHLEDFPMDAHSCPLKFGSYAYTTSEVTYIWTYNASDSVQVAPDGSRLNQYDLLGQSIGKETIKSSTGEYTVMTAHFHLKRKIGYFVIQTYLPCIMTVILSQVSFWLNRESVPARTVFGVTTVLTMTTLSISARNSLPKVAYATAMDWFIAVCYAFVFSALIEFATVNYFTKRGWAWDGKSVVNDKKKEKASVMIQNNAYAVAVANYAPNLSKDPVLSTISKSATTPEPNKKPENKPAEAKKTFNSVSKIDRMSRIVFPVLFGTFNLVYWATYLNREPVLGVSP
Briefly: Binding affinity to GABA-A alpha2 (unknown origin).

Experiment [5] addresses T2, Gamma-aminobutyric acid receptor subunit alpha-1 (Homo sapiens, UniProt P14867).
T2 sequence (P14867 whole entry): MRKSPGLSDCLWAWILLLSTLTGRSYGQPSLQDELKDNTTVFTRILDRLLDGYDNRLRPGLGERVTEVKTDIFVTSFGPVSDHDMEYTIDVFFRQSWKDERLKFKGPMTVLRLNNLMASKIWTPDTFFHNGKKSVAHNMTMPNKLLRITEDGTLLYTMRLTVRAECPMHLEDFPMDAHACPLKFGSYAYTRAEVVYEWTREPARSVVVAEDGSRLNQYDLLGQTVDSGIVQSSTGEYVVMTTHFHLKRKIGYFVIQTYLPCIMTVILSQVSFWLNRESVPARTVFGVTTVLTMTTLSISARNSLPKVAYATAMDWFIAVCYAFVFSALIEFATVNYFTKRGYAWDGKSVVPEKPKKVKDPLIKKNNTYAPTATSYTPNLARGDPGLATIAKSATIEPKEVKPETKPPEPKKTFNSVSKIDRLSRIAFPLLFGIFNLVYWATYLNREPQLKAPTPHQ
Briefly: Binding affinity to GABA-A alpha1 (unknown origin).

For experiment [6], the target named is T3, Gamma-aminobutyric acid receptor subunit alpha-3 (Homo sapiens, UniProt P34903).
T3 sequence (P34903 whole entry): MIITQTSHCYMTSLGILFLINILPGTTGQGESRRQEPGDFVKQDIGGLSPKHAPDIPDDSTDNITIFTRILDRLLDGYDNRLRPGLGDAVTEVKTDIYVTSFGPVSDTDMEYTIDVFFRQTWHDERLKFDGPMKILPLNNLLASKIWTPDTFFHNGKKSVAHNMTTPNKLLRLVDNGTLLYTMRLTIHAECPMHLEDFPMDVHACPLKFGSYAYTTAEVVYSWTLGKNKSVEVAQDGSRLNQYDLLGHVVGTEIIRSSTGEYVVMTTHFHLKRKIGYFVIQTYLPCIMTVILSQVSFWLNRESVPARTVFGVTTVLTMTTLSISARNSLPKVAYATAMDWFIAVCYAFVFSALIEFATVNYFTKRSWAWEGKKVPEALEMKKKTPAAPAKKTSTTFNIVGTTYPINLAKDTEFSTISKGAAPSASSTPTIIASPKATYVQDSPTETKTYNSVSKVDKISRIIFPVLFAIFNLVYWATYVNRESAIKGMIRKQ
In words: Binding affinity to GABA-A alpha3 (unknown origin).

The target in experiment [7] is T4, Gamma-aminobutyric acid receptor subunit alpha-5 (Homo sapiens, UniProt P31644).
T4 sequence (P31644 whole entry): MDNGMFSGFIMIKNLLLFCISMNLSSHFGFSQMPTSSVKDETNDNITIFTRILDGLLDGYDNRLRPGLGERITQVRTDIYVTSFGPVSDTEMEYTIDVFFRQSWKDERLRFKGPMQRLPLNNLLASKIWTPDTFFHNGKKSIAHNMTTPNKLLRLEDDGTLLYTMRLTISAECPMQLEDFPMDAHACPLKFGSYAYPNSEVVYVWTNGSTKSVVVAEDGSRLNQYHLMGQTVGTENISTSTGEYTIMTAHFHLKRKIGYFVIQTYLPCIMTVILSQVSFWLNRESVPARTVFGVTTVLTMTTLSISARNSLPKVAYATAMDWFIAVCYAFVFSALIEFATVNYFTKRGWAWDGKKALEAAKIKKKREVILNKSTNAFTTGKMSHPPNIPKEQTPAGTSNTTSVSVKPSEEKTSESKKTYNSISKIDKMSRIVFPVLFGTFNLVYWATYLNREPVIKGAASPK
Briefly: Binding affinity to GABA-A alpha5 (unknown origin).

In experiment [8] the test system is Homo sapiens. Briefly: In vivo receptor occupancy at GABAA receptor in po dosed human assessed as plasma concentration causing 50% reduction in [11C]-flumazenil receptor labeling. It is filed as functional.
Experiment [9] concerns the target T5, Gamma-aminobutyric acid receptor subunit alpha-1 (Homo sapiens) (UniProt P14867).
T5 sequence (whole entry): T2 sequence (P14867 whole entry)
Briefly: Negative allosteric modulation of GABA-A alpha1 (unknown origin) assessed as reduction in DMCM induced current relative to DMCM.

Experiment [10] addresses T6, Gamma-aminobutyric acid receptor subunit alpha-2 (Homo sapiens) (UniProt P47869).
T6 sequence (whole entry): T1 sequence (P47869 whole entry)
In words: Binding affinity to GABA-A alpha2 (unknown origin) assessed as reduction in DMCM induced current relative to DMCM.

Experiment [11] deals with T7, Gamma-aminobutyric acid receptor subunit alpha-3 (Homo sapiens) (UniProt P34903).
T7 sequence (whole entry): T3 sequence (P34903 whole entry)
In words: Binding affinity to GABA-A alpha3 (unknown origin) assessed as reduction in DMCM induced current relative to DMCM.

For experiment [12], the target named is T8, Gamma-aminobutyric acid receptor subunit alpha-5 (Homo sapiens) (UniProt P31644).
T8 sequence (whole entry): T4 sequence (P31644 whole entry)
In words: Binding affinity to GABA-A alpha5 (unknown origin) assessed as reduction in DMCM induced current relative to DMCM.

Experiment [13] deals with Rattus norvegicus. Briefly: In vivo receptor occupancy at GABAA receptor in po dosed rat assessed as brain concentration causing 50% reduction in [3H]-flumazenil receptor labeling. It is filed as functional.
The test system of another experiment is Mus musculus. In words: In vivo receptor occupancy at GABAA receptor in po dosed mouse assessed as brain concentration causing 50% reduction in [3H]-flumazenil receptor labeling. In kind it is functional.
In experiment [14] the test system is Homo sapiens. In words: In vivo receptor occupancy at GABAA receptor in human assessed as brain concentration causing reduction in [11C]-flumazenil receptor labeling at 2 mg after 1 hr by PET relative to control. It is filed as functional.

These results are taken from ChEMBL document CHEMBL4402545, “Subtype Selective γ-Aminobutyric Acid Type A Receptor (GABAAR) Modulators Acting at the Benzodiazepine Binding Site: An Update” (J Med Chem, 2020).

SMILES strings stand for the structures. pKi: −log10 of the molar value.

As for `CCCNC(=O)c1nnc2c(-c3c(F)cccc3OC)cccc2c1N` [AZD7325], the Occ50 in the experiment with Rattus norvegicus [1] lay in the range of 1 to 2 µM/g. In addition, the Occ with Homo sapiens [2] and with Homo sapiens [3] was 83% throughout.

Turning to `Cc1cc(-c2nnc3c4ccccc4c(OCc4cn(C)nn4)nn23)no1`, the negative logarithm of the Ki (pKi) – broadly, the negative decadic logarithm of the Ki, by convention in mol/L – is 9.24 in [4], 9.06 in [5], 9.21 in experiment [6] and 9.18 in experiment [7]. Also, the Occ50 in the experiment on Homo sapiens [8] is 10 ng/mL; with Rattus norvegicus [13], 0.12 mg/kg; in the experiment on Mus musculus it was 0.25 mg/kg. For the same molecule, the Efficacy in experiment [9] was -0.25; in experiment [10] it was 0.1; in experiment [11], -0.11; in experiment [12], -0.7. The Occ in the experiment with Homo sapiens [14] came out at 50%.
